Results taken from patent US11414379B2, “SPAK kinase inhibitors as neuroprotective agents” (United States Government as represented by the Department …, priority 2018, dated 2022).

Experiments:
KCC2 pThr906 = assay: Phosphorylation immunoblot in KCC2-transfected HEK293 cells; type: cell-based, human; parameters: key: “—” showed no inhibition of phosphorylation of SPAK/NKCC1/KC22; conditions: concentration inhibiting phosphorylation; for KCC2 pThr906 (μM) hypo: hypotonic low Cl- conditions; for KCC2 pThr906 (μM) Iso: isotonic conditions
Method: (§1) HEK293 (human embryonic kidney 293) cells were cultured on 10-cm-diameter dishes in DMEM supplemented with 10% (v/v) foetal bovine serum, 2 mM L-glutamine, 100 U/ml penicillin and 0.1 mg/ml streptomycin. HEK293 cells were transfected with a mixture of 20 μl of 1 mg/ml polyethylenimine (Polysciences) and 5-10 μg of plasmid DNA as described previously (Durocher et al., 2002). 36 hours post-transfection cells were stimulated with either control isotonic or hypotonic medium for a period of 30 minutes. Cells were lysed in 0.3 mL of ice-cold lysis buffer/dish, lysates were clarified by centrifugation at 4° C. for 15 minutes at 26,000 g and the supernatant aliquots were frozen in liquid nitrogen and stored at −20° C. Protein concentrations were determined using the Bradford method. Cells were treated with the indicated concentrations of the SPAK/OSR1 inhibitors. […] Hypotonic low chloride buffer was 67.5 mM sodium-gluconate, 2.5 mM potassium-gluconate, 0.25 mM CaCl2), 0.25 mM MgCl2, 0.5 mM Na2HPO4, 0.5 mM Na2SO4 and 7.5 mM HEPES (pH 7.5).
(§2) The membranes were incubated for 30 min with TBST (Tris-buffered saline, 0.05% Tween-20) containing 5% (w/v) skim milk. The blots were then washed six times with TBST and incubated for 1 hour at room temperature with secondary HRP-conjugated antibodies diluted 5000-fold in 5% (w/v) skim milk in TBST. After repeating the washing steps, signals were detected with enhanced chemiluminescence reagent. Immunoblots were developed using a film automatic processor (SRX-101; Konica Minolta Medical) and films were scanned at 600 dpi (PowerLook 1000; UMAX). Figures were generated using Photoshop/Illustrator (Adobe). The densities of bands were measured with ImageJ. For phospho-antibody immunoprecipitation, KCC isoforms were immunoprecipitated from indicated cell extracts. 2 mg of the indicated clarified cell extract were mixed with 15 μg of the indicated phospho-specific KCC antibody conjugated to 15 μl of protein-G-Sepharose, in the added presence of […] of the dephosphorylated form of the phosphopeptide antigen, and incubated 2 hours at 4° C. with gentle shaking. Immunoprecipitates were washed three times with 1 mL of lysis buffer containing 0.15 M NaCl and twice with 1 ml of buffer A. Bound proteins were eluted with 1×LDS sample buffer.
(§3) HEK293 cells were transfected with a DNA construct encoding wild type N-terminally FLAG-tagged KCC2. 36 hrs post-transfection, cells were exposed 30 min to either control isotonic or hypotonic low [C1^−] conditions, then treated in the same conditions for an additional 30 min with the indicated inhibitors at the concentrations noted. Cell lysates were subjected to SDS-PAGE and Western blotting with the indicated antibodies. See FIG. 3 for Western blot quantitation.
(§4) Referring to FIG. 2, concentration-response experiments testing effects of Closantel analogs on phosphorylation of KCC2 Thr906/Thr1007 are shown. HEK293 cells were transfected with DNA construct encoding wild type N-terminally FLAG-tagged KCC2. 36 h post-transfection, cells were exposed 30 min to either control isotonic conditions or hypotonic low Cl^− conditions, then treated in the same conditions with the specified inhibitors (1b, 1c, 1f, 1d, 1h, and 1g, respectively) at the indicated concentrations for an additional 30 min. Lysates were subjected to SDS-PAGE and Western blotting with the indicated antibodies.
(§5) Referring to FIG. 3, HEK293 cells were transfected with the DNA construct encoding wild type N-terminally FLAG-tagged KCC2. 36 h post-transfection, cells were exposed 30 min to either control isotonic or hypotonic low Cl^− conditions, then treated in the same conditions with the specified inhibitors at the indicated concen-trations for an additional 30 min. Lysates were subjected to SDS-PAGE and Western blotting with the indicated antibodies. Closantel, STOCK1S-14279 and STOCK1S-50699 were used as reference compounds.

SPAK pSer373 = assay: as above; type: cell-based, human; parameters: key: “—” showed no inhibition of phosphorylation of SPAK/NKCC1/KC22; conditions: concentration inhibiting phosphorylation; for SPAK pSer373 (μM) hypo: hypotonic low Cl- conditions; for SPAK pSer373 (μM) Iso: isotonic conditions
Method: as §1, §2, §3, §4, §5

KCC2 pThr1007 = assay: as above; type: cell-based, human; parameters: key: “—” showed no inhibition of phosphorylation of SPAK/NKCC1/KC22; conditions: concentration inhibiting phosphorylation; for KCC2 pThr1007 (μM) hypo: hypotonic low Cl- conditions; for KCC2 pThr1007 (μM) Iso: isotonic conditions
Method: as §1, §2, §3, §4, §5

NKCC1 pThr203 = assay: as above; type: cell-based, human; parameters: key to NKCC1 pThr203 (μM) Iso / NKCC1 pThr203 (μM) hypo: “—” showed no inhibition of phosphorylation of SPAK/NKCC1/KC22; conditions: concentration inhibiting phosphorylation; for NKCC1 pThr203 (μM) hypo: hypotonic low Cl- conditions; for NKCC1 pThr203 (μM) Iso: isotonic conditions
Method: as §1, §2, §3, §4, §5

GST-[T233E]SPAK kinase = target: T1, GST-[T233E]SPAK kinase (Homo sapiens, UniProt Q9UEW8, T231E); assay: SPAK kinase assay employing CATCHtide; type: biochemical; conditions: SPAK activity at different ATP concentrations
T1 construct: made in house; host or cells: E. coli
Method: SPAK kinase assays employing CATCHtide (cation chloride co-transporter peptide substrate). Peptide kinase assays, performed in triplicate, were set up in a total volume of 50 μl containing 0.5 μg GST-[T233E]SPAK kinase (˜5 nM at ˜10% purity) in 50 mM Tris/HCl, pH 7.5, 0.1 mM EGTA, 10 mM MgCl2, 300 μM CATCHtide ([…]; SEQ ID NO:1), […] [γ-32P]ATP (˜500 cpm/pmol) and the indicated concentrations of inhibitor dissolved in DMSO. After incubation for 30 min at 30° C., reactions were terminated by spotting 40 μl of the reaction mix onto P81 phosphocellulose paper and immersion in 50 mM phosphoric acid. The papers were washed extensively and the incorporation of [γ-^32P]ATP into CATCHtide was quantified by Cerenkov counting. IC^50 values were calculated with GraphPad Prism using non-linear regression analysis.
Referring to FIG. 7A, the activation of SPAK kinase by MO25α is shown. SPAK was assayed in the absence or presence of five-fold molar excess of wild-type MO25α.
Referring to FIG. 7B, kinetic data was determined for ZT-1a in the absence or presence of five-fold molar excess of wild-type MO25α. Data points are the average of three determinations, and the error bars are +/−SEM.

SMILES | KCC2 pThr906 (μM) hypo (KCC2 pThr906) | KCC2 pThr906 (μM) Iso (KCC2 pThr906) | SPAK pSer373 (μM) hypo (SPAK pSer373) | SPAK pSer373 (μM) Iso (SPAK pSer373) | KCC2 pThr1007 (μM) hypo (KCC2 pThr1007) | KCC2 pThr1007 (μM) Iso (KCC2 pThr1007) | NKCC1 pThr203 (μM) hypo (NKCC1 pThr203) | NKCC1 pThr203 (μM) Iso (NKCC1 pThr203) | change of IC50 values with increasing ATP concentrations (GST-[T233E]SPAK kinase)
Cc1cc(C(C#N)c2ccc(Cl)cc2)c(Cl)cc1NC(=O)c1ccccc1O (stereo not shown) [Compound 1b, N-(5-chloro-4-((4-chlorophenyl)(cyano)methyl)-2-methylphenyl)-2-hydroxy-benzamide] | 10, 10 μM | 10, 10 μM | 3, 3 μM | 3, 3 μM | 3, 3 μM | 3, 3 μM | 1 μM | 3 μM | 
Cc1cc(C(C#N)c2ccc(Cl)cc2)c(Cl)cc1NC(=O)c1ccccc1S (stereo not shown) [Compound 1c, N-(5-chloro-4-((4-chlorophenyl)(cyano)methyl)-2-methylphenyl)-2-mercapto-benzamide] | 10, 10 μM | 10, 10 μM | 3, 3 μM | 3, 3 μM | 3, 3 μM | 3, 3 μM | 3 μM | 1 μM | 
Cc1cc(C(C#N)c2ccc(Cl)cc2)c(Cl)cc1NC(=O)c1ccccc1N (stereo not shown) [Compound 1d, 2-amino-n-(5-chloro-4-((4-chlorophenyl)(cyano)methyl)-2-methylphenyl)-benzamide] | 10, 10 μM | 10, 10 μM | 3, 3 μM | 3, 3 μM | 3, 3 μM | 3, 3 μM | 3 μM | 1 μM | 
Cc1cc(C(C#N)c2ccc(Cl)cc2)c(Cl)cc1NC(=O)c1ccccc1[N+](=O)[O-] (stereo not shown) [Compound 1e, N-(5-chloro-4-((4-chlorophenyl)(cyano)methyl)-2-methylphenyl)-2-nitrobenzamide] | — | — | — | — | — | — | — | — | 
Cc1cc(C(C#N)c2ccc(Cl)cc2)c(Cl)cc1NC(=O)c1cc(Cl)cc(Cl)c1O (stereo not shown) [Compound 1f, 3,5-dichloro-n-(5-chloro-4-((4-chlorophenyl)(cyano)methyl)-2-methylphenyl)-2-hydroxy-benzamide] | 10, 10 μM | 10, 10 μM | 3, 3 μM | 3, 3 μM | 3, 3 μM | 3, 3 μM | 3 μM | 1 μM | 
Cc1cc(C(C#N)c2ccc(Cl)cc2)c(Cl)cc1NC(=O)c1cc(F)ccc1O (stereo not shown) [Compound 1g] | 10, 10 μM | 10, 10 μM | 3, 3 μM | 3, 3 μM | 3, 3 μM | 3, 3 μM | 3 μM | 1 μM | 
Cc1cc(C(C#N)c2ccc(Cl)cc2)c(Cl)cc1NC(=O)c1cccc(F)c1O (stereo not shown) [Compound 1h, N-(5-chloro-4-((4-chlorophenyl)(cyano)methyl)-2-methylphenyl)-3-fluoro-2-hydroxy-benzamide] | 10, 10 μM | 10, 10 μM | 3, 3 μM | 3, 3 μM | 3, 3 μM | 3, 3 μM | 3 μM | 1 μM | 
Cc1cc(C(C#N)c2ccc(Cl)cc2)c(Cl)cc1NC(=O)c1cccc(O)c1O (stereo not shown) [Compound 1i, N-(5-chloro-4-((4-chlorophenyl)(cyano)methyl)-2-methylphenyl)-2,3-dihydroxy-benzamide] | — | — | — | — | — | — | — | — | 
COc1ccc(Cl)cc1C(=O)Nc1cc(Cl)c(C(C#N)c2ccc(Cl)cc2)cc1C (stereo not shown) [Compound 1j] | — | — | — | — | — | — | — | — | 
CN[C@@H]1C[C@H]2O[C@@](C)([C@@H]1OC)n1c3ccccc3c3c4c(c5c6ccccc6n2c5c31)C(=O)NC4 [staurosporine, reference compound] |  |  |  |  |  |  |  |  | increased in a dose-proportional manner
